The source of these data is patent US20100247579A1, “THERAPEUTIC AGENT FOR CANCER” (priority 2007, published 2010).

Type in all cases: in vivo, C57BL/6 mice
The subject of test [1] is CD3e^+ T cells in blood. Description: T cell count in blood after CPA and T cell transfer, syngeneic tumor model C57BL/6-hB16F10. The conditions noted are these: day 6 after cell administration; group A defined as 100%; CPA 100 mg/kg i.p. day 4. How it is done: Evaluation of the lymphocyte count was effected by measuring the leukocyte count and the T cell count contained in the blood sample collected from the mouse tail vein. A volume of 22 μL of the blood was collected into a 0.5 mL tube containing 3 μL of heparin sodium (manufactured by Mitsubishi Wellpharma Inc.) per one mouse. An aliquote of 15 μL was taken from the blood sample, added to a mixed solution of 14 μL of Flow-Count (manufactured by Beckman Coulter Inc.) and 0.5 μL of hamster anti-mouse CD3e FITC (manufactured by eBioscience Inc.), and the mixture was treated for 15 minutes. Thereafter, the erythrocytes were hemolysed with a low isotonic solution, and subjected to flow cytometry to calculate the rate of T cells and the recovery rate of T cells, with the CD3e^+ cells being as the T cells. […] […] Moreover, the recovery rate of the T cells was determined to be a ratio of the number of the T cells on day 4 after the cell administration relative to the number of the T cells immediately before the cell administration.
In a similar manner to item (5) of Example 1, expansion of mouse T cell population was carried out.
Using the mouse T cells which had been expanded in item (1) of Example 11, separation of the naive T-like cells and the effector T-like cells was performed similarly to item (2) of Example 10. […]

Test [2] concerns hB16F10. Description: Antitumor activity (tumor size) after CPA and T cell transfer, syngeneic tumor model C57BL/6-hB16F10. The conditions noted are these: day 11 after tumor inoculation; CPA 100 mg/kg i.p. day 4.
Experimental: On the next day, individual mouse T cells prepared in item (2) of Example 11 was prepared with an RPMI 1640 medium to a density of 3.75×10^8 cells/mL, and the naive T-like cells and the effector T-like cells in 0.2 mL each were administered via the tail veins to each individual of group C and group D, respectively. In addition, the RPMI 1640 medium was administered to each individual of group A and group B in 0.2 mL each via the tail veins.
However, the tumor size was determined on days 11 and 13 after the tumor inoculation.
Test [3] deals with CD3e^+ T cells in blood. Description: T cell count in blood after MMC and T cell transfer, syngeneic tumor model C57BL/6-hB16F10. How it is done:
In a similar manner to item (5) of Example 1, expansion of mouse T cells was carried out, however, the human CH-296 was not used, and the cells on day 6 of culture were collected. The cells were subjected to each experiment.
The cells obtained in item (1) of Example 10 were collected to take a required amount, and centrifuged at 500×g for 5 minutes at room temperature to remove the supernatant. Thereafter, the cells were suspended in DPBS containing 0.5% BSA and 2 mM disodium ethylenediaminetetraacetate (hereinafter referred to as 0.5% BSA/DPBS) to a density of 1.11×10^8 cells/mL. CD62L ([…]) microbeads (mouse) (manufactured by MACS) were added to the cell solution in 10 μL per cell count of 1×10^7 cells, and incubated for 15 minutes while stirring sometimes in a dark place at 4° C. Then, to the cell solution was added 1 mL of 0.5% BSA/DPBS per cell count of 1×10^7 cells, and the mixture was centrifuged at 500×g for 5 minutes at room temperature to remove the supernatant. After that, 0.5 mL of 0.5% BSA/DPBS per cell count of 1×10^8 cells was added thereto, suspended sufficiently, and allowed to stand on ice to afford a CD62L microbeads target cell solution. An LS column (manufactured by MACS, hereinafter referred to as a separation column) was provided to a VarioMACS (trademark) separator (manufactured by MACS, hereinafter referred to as a separation apparatus) and rinsed with 3 mL of 0.5% BSA/DPBS. The CD62L microbeads-labeled cell solution was added to the column for elution and further rinsed with 9 mL of 0.5% BSA/DPBS to collect an eluate, thereby obtaining CD62L^− cells as effector T-like cells. The column was removed from the separation apparatus, and CD62L^+ cells were collected as naive T-like cells by extrusion with a plunger attached to the separation apparatus after addition of 5 mL of a buffer.
Hair removal of about 9 cm^2 in the right inguina of 7-week old female C57BL/6 mice was effected under anesthesia, and 0.1 mL of hB16F10 suspended in an RPMI 1640 medium to a density of 4×10^6 cells/mL was subcutaneously administered to the mice. […]

In test [4] the test system is hB16F10. Description: Antitumor activity (tumor size) after MMC and T cell transfer, syngeneic tumor model C57BL/6-hB16F10. The conditions noted are these: day 14 after tumor inoculation; product of major and minor diameter. How it is done:
Hair removal of about 9 cm^2 in the right inguina of 7-week old female C57BL/6 mice was effected under anesthesia, and 0.1 mL of hB16F10 suspended in an RPMI 1640 medium to a density of 4×10^6 cells/mL was subcutaneously administered to the mice. Thereafter, group settings were carried out as follows. Group A was set to an untreated group, group B was set to an MMC alone administration group, group C was set to a combinatorial MMC and naive T-like cell administration group, and group D was set to a combinatorial MMC and effector T-like cell administration group. On days 3 and 4 after tumor inoculation, 0.2 mL of a saline (manufactured by Otsuka Pharmaceutical Co., Ltd.) was intraperitoneally administered to group A and the MMC at a dose of 2 mg/kg was intraperitoneally administered to other groups. On day 6 after the tumor inoculation, individual mouse T cells prepared in item (2) of Example 10 were prepared with an RPMI 1640 medium to a density of 5×10^8 cells/mL. The naive T-like cells and the effector T-like cells in 0.2 mL each were respectively administered to each individual of group C and group D via the tail veins. […]
In order to assay the antitumor activity in the evaluation system performed in item (3) of Example 10, a tumor size in each individual on day 14 after the tumor inoculation was determined with an electronic caliper. […]

In the case of `O=P1(N(CCCl)CCCl)NCCCO1` (stereo not drawn) [CPA, cyclophosamide], in the test with CD3e^+ T cells in blood [1], the “Rate of T cells (%)” value came to 52.2%. For the same compound, in the test on hB16F10 [2], the “Tumor Size (mm^2) On day 11” value worked out at 32.6 mm^2.
`CO[C@@]12[C@H](COC(N)=O)C3=C(C(=O)C(C)=C(N)C3=O)N1C[C@@H]1N[C@@H]12` [MMC, mitomycin C]: the “Rate of T Cells On Day 4 after Cell Administration” value in the test on CD3e^+ T cells in blood [3] (group A (untreated) defined as 100%, MMC 2 mg/kg i.p. days 3 and 4, cells via tail vein day 6) stood at 118.2%. For the same compound, in the test on CD3e^+ T cells in blood [3] (group A (untreated) defined as 100%, MMC 2 mg/kg i.p. on days 3 and 4 after tumor inoculation), the “Rate of T Cells Immediately before Cell Administration” value is 84.1%. Moreover, the “Recovery Rate of T Cells” value with CD3e^+ T cells in blood [3] (ratio of T cell number on day 4 after cell administration to number immediately before) was 1.4. Further, in the test with hB16F10 [4], the “Tumor Size (mm^2)” value stood at 82.5 mm^2.
